Experimental data taken from patent publication EP0054589B1, “Organic phosphoric acid ester derivatives, a process for preparing the same and insecticidal, miticidal or nematocidal compositions containing the same” (priority 1980, dated 1982).

Columns and labels:
egg plant [1] = test: Phytotoxicity observed visually in the mite test on egg plant; assay type: in vivo; design: key: —: None; +: Slightly toxic; ++: Toxic; +++: Strongly toxic; settings: Table 13; 500 ppm; observed visually on the 7th day after the application
Procedure: (§1) (A) An emulsifiable concentrate prepared as described in Formulation Example 1 and diluted to a predetermined concentration was sprayed using a spray-gun on a seedling of an egg plant placed in a pot of 12 cm in diametre to which plant carmine mites resistant to Kelthane were parasitic. After drying in air, seedlings were kept in a green house, and the number of living insects was recorded on the 7th, 14th, 21 st and 28th day from the day of application to determine the control effects. Three pots were used for each treatment. The control effect was assessed by the formula described in TEST EXAMPLE 7 above. Further, phytotoxicity was observed visually on the 7th day after the application.
as §1, with “(B) An” for “(A) An”, “Example 3” for “Example 1”, “in diameter” for “in diametre”, “in Test” for “in TEST”

[2] = tested on: carmine mites resistant to Kelthane; test: Miticidal effect on carmine mite resistant to Kelthane (sprayed egg plant seedling); assay type: in vivo, Tetranychus cinnabarius; settings: Table 13, 500 ppm; for Number of Living Mites after Application 7th Day / Number of Living Mites after Application 14th Day / Number of Living Mites after Application 21st Day / Number of Living Mites after Application 28th Day: egg plant seedling, Formulation Example 1; for Control Effect (%): from mite counts on 7th, 14th, 21st and 28th day
Procedure: as §1
as §1, with “(B) An” for “(A) An”, “Example 3” for “Example 1”, “in diameter” for “in diametre”, “in Test” for “in TEST”

apple leaf miner = test: Insecticidal effect on apple leaf miner (sprayed apple seedling); assay type: in vivo, Lithocolletis ringoniella; settings: Phyllonorycter ringoniella, 336 h; Table 10; 500 ppm; fourteen days after spraying; wettable powder as Formulation Example 5; read-out: Percent Morality (%)
Procedure, shortened: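 Wettable-powder suspensions were sprayed onto potted apple seedlings infested with newly hatched leaf miner larvae, then kept in a greenhouse.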

tobacco cutworm = test: Insecticidal effect on tobacco cutworm (cabbage leaf dip); assay type: in vivo, Prodenia litura; settings: Table 3; 500 ppm; after 48 hours, 25°C; emulsifiable concentrate as Formulation Example 1
Procedure, shortened: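 Cabbage leaves dipped in water-diluted emulsifiable concentrate (two formulations, tests A and B) and air-dried were fed to 3rd-instar tobacco cutworm larvae at 25°C. Percent mortality scored after 48 hours; 3 replicates of 30 insects per compound.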

Tomato = test: Phytotoxicity on various crops; assay type: in vivo; design: key: Symbol — indicates that no toxicity was observed; settings: 500 ppm sprayed; checked visually after 10 days
Procedure, shortened: (§2)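 Test compounds, formulated as emulsifiable concentrates and brought to 500 ppm active in water, were sprayed onto the crops in sufficient amount. After ten days in the greenhouse, crop injury was inspected visually.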

Kidney Bean = test: Phytotoxicity on various crops; assay type: in vivo; design: key: Symbol — indicates that no toxicity was observed; settings: 500 ppm sprayed; checked visually after 10 days
Procedure, shortened: as §2

Cucumber = test: Phytotoxicity on various crops; assay type: in vivo; design: key: Symbol — indicates that no toxicity was observed; settings: 500 ppm sprayed; checked visually after 10 days
Procedure, shortened: as §2

Apple = test: Phytotoxicity on various crops; assay type: in vivo; design: key: Symbol — indicates that no toxicity was observed; settings: 500 ppm sprayed; checked visually after 10 days
Procedure, shortened: as §2

Green Pepper = test: Phytotoxicity on various crops; assay type: in vivo; design: key: Symbol — indicates that no toxicity was observed; settings: 500 ppm sprayed; checked visually after 10 days
Procedure, shortened: as §2

egg plant [3] = test: Phytotoxicity on various crops; assay type: in vivo; design: key: Symbol — indicates that no toxicity was observed; settings: 500 ppm sprayed; checked visually after 10 days
Procedure, shortened: as §2

Rice = test: Phytotoxicity on various crops; assay type: in vivo; design: key: Symbol — indicates that no toxicity was observed; settings: 500 ppm sprayed; checked visually after 10 days
Procedure, shortened: as §2

Cotton = test: Phytotoxicity on various crops; assay type: in vivo; design: key: Symbol — indicates that no toxicity was observed; settings: 500 ppm sprayed; checked visually after 10 days
Procedure, shortened: as §2

Cabbage = test: Phytotoxicity on various crops; assay type: in vivo; design: key: Symbol — indicates that no toxicity was observed; settings: 500 ppm sprayed; checked visually after 10 days
Procedure, shortened: as §2

Beet = test: Phytotoxicity on various crops; assay type: in vivo; design: key: Symbol — indicates that no toxicity was observed; settings: 500 ppm sprayed; checked visually after 10 days
Procedure, shortened: as §2

Tea = test: Phytotoxicity on various crops; assay type: in vivo; design: key: Symbol — indicates that no toxicity was observed; settings: 500 ppm sprayed; checked visually after 10 days
Procedure, shortened: as §2

carmine mites = test: Miticidal effect on carmine mite (sprayed kidney bean seedling); assay type: in vivo, Tetranychus cinnabarius; settings: 500 ppm
Procedure: An emulsifiable concentrate prepared as described in Formulation Example 1 and diluted to a predetermined concentration was sprayed using a spray-gun on a seedling of a kidney bean placed in a pot of 12 cm in diameter to which plant carmine mites were parasitic. After drying in air, seedlings were kept in a green house, and the number of living insects was recorded on the 7th, 14th, 21st and 28th day from the day of application to determine the control effects. Three pots were used for each treatment. The control effect was assessed by the following formula: [formula] • wherein Σ indicates sum and Cb, Tb, Cai and Tai have the following meanings. • Cb: Number of living mites in non-treated sample before application. • Tb: Number of living mites in treated sample before application. • Cai: Number of living mites in non-treated sample 7th, 14th, 21 st or 28th day from the application. • Tai: Number of living mites in treated sample 7th, 14th, 21st or 28th day from the application.

In the case of `CCCSP(=O)(OC)Oc1ccc2c(c1)OC(C)=CC2(C)C` (stereo not drawn) [Compound No. 1], the Phytotoxicit (egg plant [1]) is reported as “—”, the “Number of Living Mites after Application 7th Day” value [2] is reported as 0 and the “Number of Living Mites after Application 14th Day” value [2] is reported as 0. The “Number of Living Mites after Application 21st Day” value [2] was 5, the “Number of Living Mites after Application 28th Day” value [2] was 11 and the “Control Effect (%)” value [2] was 99.0%. The mortality at 500 ppm (apple leaf miner) was 100%, the “Percent Mortality (%)” value (tobacco cutworm) was 100% and the “Phytotoxicity: Tomato” value (Tomato) was “—”. The “Phytotoxicity: Kidney Bean” value (Kidney Bean) was “—”, the “Phytotoxicity: Cucumber” value (Cucumber) was “—” and the “Phytotoxicity: Apple” value (Apple) was “—”. For the same compound, the “Phytotoxicity: Green Pepper” value (Green Pepper) was “—”, the “Phytotoxicity: Egg Plant” value (egg plant [3]) was “—” and the “Phytotoxicity: Rice” value (Rice) was “—”. The “Phytotoxicity: Cotton” value (Cotton) was “—”, the “Phytotoxicity: Cabbage” value (Cabbage) was “—” and the “Phytotoxicity: Beet” value (Beet) was “—”. For the same compound, the “Phytotoxicity: Tea” value (Tea) was “—”, the “Control Effect (%)” value (carmine mites) was 99.6% and the “Number of Living Mites after Application 7th Day” value (carmine mites) was 0. The “Number of Living Mites after Application 14th Day” value (carmine mites) was 0, the “Number of Living Mites after Application 21st Day” value (carmine mites) was 0 and the “Number of Living Mites after Application 28th Day” value (carmine mites) was 3.
For `CCCSP(=O)(OCC)Oc1ccc2c(c1)OC(C)=CC2(C)C` (stereo not drawn) [Compound No. 2, O-ethyl-S-propyl-O-(2,4,4-trimethyl-1,4-benzopyran-7-yl)phosphorothioate], the Phytotoxicit (egg plant [1]) was “—”, the “Number of Living Mites after Application 7th Day” value [2] was 0 and the “Number of Living Mites after Application 14th Day” value [2] was 0. For the same compound, the “Number of Living Mites after Application 21st Day” value [2] was 7, the “Number of Living Mites after Application 28th Day” value [2] was 10 and the “Control Effect (%)” value [2] was 99.1%. For the same compound, the mortality at 500 ppm (apple leaf miner) was 100%, the “Percent Mortality (%)” value (tobacco cutworm) was 100% and the “Phytotoxicity: Tomato” value (Tomato) was “—”. The “Phytotoxicity: Kidney Bean” value (Kidney Bean) was “—”, the “Phytotoxicity: Cucumber” value (Cucumber) was “—” and the “Phytotoxicity: Apple” value (Apple) was “—”. For the same compound, the “Phytotoxicity: Green Pepper” value (Green Pepper) was “—”, the “Phytotoxicity: Egg Plant” value (egg plant [3]) was “—” and the “Phytotoxicity: Rice” value (Rice) was “—”. The “Phytotoxicity: Cotton” value (Cotton) was “—”, the “Phytotoxicity: Cabbage” value (Cabbage) was “—” and the “Phytotoxicity: Beet” value (Beet) was “—”. The “Phytotoxicity: Tea” value (Tea) was “—”, the “Control Effect (%)” value (carmine mites) was 99.0% and the “Number of Living Mites after Application 7th Day” value (carmine mites) was 0. For the same compound, the “Number of Living Mites after Application 14th Day” value (carmine mites) was 0, the “Number of Living Mites after Application 21st Day” value (carmine mites) was 0 and the “Number of Living Mites after Application 28th Day” value (carmine mites) was 11.
